Experimental data reported in US10266497B2 (ABIDE THERAPEUTICS, INC., priority 2017, dated 2019).

How the values were obtained:
MAGL [1] = molecular target: T1, MAGL (Mus musculus, UniProt O35678); assay: Mouse brain proteomes from inhibitor treated mice (oral gavage, sacrificed 4 h after administration); format: in vivo; set-up: mouse brain membrane fraction for mouse assays; from tissue; host or cells: mouse brain (membrane fraction in vitro; brain proteomes of treated C57Bl/6J mice in vivo); conditions: 5 mg/kg oral gavage, brain proteome 4 h after administration, read-out: MAGL % inh. 5 mg/kg (mouse)
T1 sequence (O35678 1-303): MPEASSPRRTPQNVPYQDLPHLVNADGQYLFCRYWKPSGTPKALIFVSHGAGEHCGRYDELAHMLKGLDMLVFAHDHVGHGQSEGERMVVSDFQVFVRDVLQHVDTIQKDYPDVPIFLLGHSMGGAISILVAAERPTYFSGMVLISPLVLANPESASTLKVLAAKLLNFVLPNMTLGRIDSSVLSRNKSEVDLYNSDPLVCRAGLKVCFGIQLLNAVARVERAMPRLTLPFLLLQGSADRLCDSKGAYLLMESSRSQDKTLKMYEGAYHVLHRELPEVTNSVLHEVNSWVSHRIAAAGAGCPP

FAAH [2] = molecular target: T2, FAAH (Mus musculus, UniProt O08914); assay: Mouse brain proteomes from inhibitor treated mice (oral gavage, sacrificed 4 h after administration), FAAH; format: in vivo; set-up: mouse brain membrane fraction for mouse assays; from tissue; host or cells: mouse brain (membrane fraction in vitro; brain proteomes of treated C57Bl/6J mice in vivo); conditions: 5 mg/kg oral gavage, brain proteome 4 h after administration, read-out: FAAH % inh. 5 mg/kg (mouse)
T2 sequence (O08914 1-579): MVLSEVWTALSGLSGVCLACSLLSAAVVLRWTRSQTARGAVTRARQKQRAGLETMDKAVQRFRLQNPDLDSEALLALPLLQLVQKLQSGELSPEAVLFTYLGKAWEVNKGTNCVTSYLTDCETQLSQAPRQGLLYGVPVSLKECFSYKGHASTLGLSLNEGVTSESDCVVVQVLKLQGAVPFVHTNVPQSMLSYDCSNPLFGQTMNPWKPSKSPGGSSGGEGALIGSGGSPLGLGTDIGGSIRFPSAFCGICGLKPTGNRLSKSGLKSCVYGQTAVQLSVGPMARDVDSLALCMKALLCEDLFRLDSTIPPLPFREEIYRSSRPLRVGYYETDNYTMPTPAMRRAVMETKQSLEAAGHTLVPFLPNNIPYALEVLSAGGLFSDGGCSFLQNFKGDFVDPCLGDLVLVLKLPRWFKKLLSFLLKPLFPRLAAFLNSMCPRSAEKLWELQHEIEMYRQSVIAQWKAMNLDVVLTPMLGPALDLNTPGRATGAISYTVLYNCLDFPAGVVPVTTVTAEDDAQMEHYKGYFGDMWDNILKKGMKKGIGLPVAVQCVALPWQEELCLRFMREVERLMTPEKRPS

MAGL [3] = molecular target: T1, MAGL; assay: In vitro competitive activity-based protein profiling, MAGL, mouse; conditions: read-out: MAGL % inh. 1 μM (mouse)
FAAH [4] = molecular target: T2, FAAH; assay: In vitro competitive activity-based protein profiling, FAAH, mouse; conditions: read-out: FAAH % inh. 1 μM (mouse)
FAAH [5] = molecular target: T3, FAAH (Homo sapiens, UniProt O00519); assay: In vitro competitive activity-based protein profiling, FAAH, human; conditions: for inhibition at 1 µM: read-out: FAAH % inh. 1 μM (human)
T3 sequence (O00519 1-579): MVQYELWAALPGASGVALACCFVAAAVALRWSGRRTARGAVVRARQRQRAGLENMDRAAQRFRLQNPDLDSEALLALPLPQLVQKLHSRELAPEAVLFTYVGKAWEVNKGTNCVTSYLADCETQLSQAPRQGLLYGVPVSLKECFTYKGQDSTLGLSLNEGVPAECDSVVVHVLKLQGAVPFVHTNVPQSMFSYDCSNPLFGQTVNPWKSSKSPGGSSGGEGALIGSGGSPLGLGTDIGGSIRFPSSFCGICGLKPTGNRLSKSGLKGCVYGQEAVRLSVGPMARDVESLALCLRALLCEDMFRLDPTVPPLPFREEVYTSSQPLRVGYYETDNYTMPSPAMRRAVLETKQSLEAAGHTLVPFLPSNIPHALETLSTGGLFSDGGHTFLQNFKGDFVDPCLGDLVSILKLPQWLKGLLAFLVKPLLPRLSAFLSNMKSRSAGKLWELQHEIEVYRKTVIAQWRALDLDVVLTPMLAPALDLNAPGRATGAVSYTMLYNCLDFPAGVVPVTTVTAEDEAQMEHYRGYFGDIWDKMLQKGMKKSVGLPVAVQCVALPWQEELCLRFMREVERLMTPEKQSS

MAGL [6] = molecular target: T4, MAGL (Homo sapiens, UniProt Q99685); assay: In vitro competitive activity-based protein profiling, MAGL, human; conditions: read-out: MAGL % inh. 1 μM (human)
T4 sequence (Q99685 1-303): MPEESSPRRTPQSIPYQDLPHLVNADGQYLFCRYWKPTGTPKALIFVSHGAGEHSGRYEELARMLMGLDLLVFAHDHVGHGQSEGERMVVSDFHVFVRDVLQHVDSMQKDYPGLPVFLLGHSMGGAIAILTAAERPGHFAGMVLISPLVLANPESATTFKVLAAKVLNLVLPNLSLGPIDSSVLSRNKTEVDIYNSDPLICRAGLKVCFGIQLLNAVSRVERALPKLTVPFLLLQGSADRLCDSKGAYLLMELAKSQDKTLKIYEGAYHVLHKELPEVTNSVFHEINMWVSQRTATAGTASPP

inhibition at 5 mg/kg (MAGL [1])	inhibition at 5 mg/kg (FAAH [2])	inhibition at 1 µM (MAGL [3])	inhibition at 1 µM (FAAH [4])	inhibition at 1 µM (FAAH [5])	inhibition at 1 µM (MAGL [6])	IC50 (FAAH [5])	SMILES
0 to 25%	0 to 25%	> 75%	0 to 25%	0 to 25%	> 75%	–	O=C(O)c1ccn(C(=O)N2CCN(Cc3cccc(C(F)(F)F)c3N3CCCC3)CC2)n1 [Example 90, 1-(4-(2-(pyrrolidin-1-yl)-3-(trifluoromethyl)benzyl)piperazine-1-carbonyl)-1H-pyrazole-3-carboxylic acid]
0 to 25%	0 to 25%	> 75%	0 to 25%	0 to 25%	> 75%	–	O=C(O)c1ccn(C(=O)N2CCN(Cc3ccc(C(F)(F)F)cc3Cl)CC2)n1 [Example 91, 1-(4-(2-chloro-4-(trifluoromethyl)benzyl)piperazine-1-carbonyl)-1H-pyrazole-3-carboxylic acid]
0 to 25%	0 to 25%	> 75%	0 to 25%	0 to 25%	> 75%	1 to 10 µM	O=C(O)c1ccn(C(=O)N2CCN(Cc3ccc(C(F)(F)F)cc3N3CC[C@H](F)C3)CC2)n1 [Example 92, (S)-1-(4-(2-(3-fluoropyrrolidin-1-yl)-4-(trifluoromethyl)benzyl)-piperazine-1-carbonyl)-1H-pyrazole-3-carboxylic acid]
0 to 25%	0 to 25%	> 75%	0 to 25%	0 to 25%	> 75%	1 to 10 µM	O=C(O)c1ccn(C(=O)N2CCC3(CCCN3Cc3ccc(C(F)(F)F)cc3N3CCCC3)CC2)n1 [Example 93, 1-(1-(2-(pyrrolidin-1-yl)-4-(trifluoromethyl)benzyl)-1,8-diazaspiro[4.5]decane-8-carbonyl)-1H-pyrazole-3-carboxylic acid]
0 to 25%	0 to 25%	> 75%	0 to 25%	0 to 25%	> 75%	–	C[C@@H]1CCCN1c1cc(C(F)(F)F)ccc1CN1CCN(C(=O)n2ccc(C(=O)O)n2)CC1 [Example 95, (R)-1-(4-(2-(2-methylpyrrolidin-1-yl)-4-(trifluoromethyl)benzyl)piperazine-1-carbonyl)-1H-pyrazole-3-carboxylic acid]
0 to 25%	0 to 25%	> 75%	> 75%	> 75%	> 75%	0.1 to 1 µM	O=C(O)c1ccn(C(=O)N2CCN(Cc3cccc(Oc4ccc(Cl)cc4)c3)CC2)n1 [Example 98, 1-(4-(3-(4-chlorophenoxy)benzyl)piperazine-1-carbonyl)-1H-pyrazole-3-carboxylic acid]
0 to 25%	0 to 25%	> 75%	0 to 25%	0 to 25%	> 75%	1 to 10 µM	O=C(O)c1ccn(C(=O)N2CCN(Cc3ccc(C(F)(F)F)cc3N3CCCCC3)CC2)n1 [Example 100, 1-(4-(2-(piperidin-1-yl)-4-(trifluoromethyl)benzyl)piperazine-1-carbonyl)-1H-pyrazole-3-carboxylic acid]
0 to 25%	0 to 25%	> 75%	0 to 25%	0 to 25%	> 75%	–	O=C(O)c1ccn(C(=O)N2CCN(Cc3ccc(C(F)(F)F)cc3N3CC[C@@H](F)C3)CC2)n1 [Example 101, (R)-1-(4-(2-(3-fluoropyrrolidin-1-yl)-4-(trifluoromethyl)benzyl)piperazine-1-carbonyl)-1H-pyrazole-3-carboxylic acid]
0 to 25%	0 to 25%	> 75%	0 to 25%	0 to 25%	> 75%	–	C[C@H]1CCCN1c1cc(C(F)(F)F)ccc1CN1CCN(C(=O)n2ccc(C(=O)O)n2)CC1 [Example 104, (S)-1-(4-(2-(2-methylpyrrolidin-1-yl)-4-(trifluoromethyl)benzyl)piperazine-1-carbonyl)-1H-pyrazole-3-carboxylic acid]
0 to 25%	0 to 25%	> 75%	0 to 25%	0 to 25%	> 75%	–	O=C(O)c1ccn(C(=O)N2CCN(Cc3ccc(C(F)(F)F)cc3N3CC4COCC4C3)CC2)n1 (stereo not shown) [Example 106, 1-(4-(2-(tetrahydro-1H-furo[3,4-c]pyrrol-5(3H)-yl)-4-(trifluoromethyl)benzyl)piperazine-1-carbonyl)-1H-pyrazole-3-carboxylic acid]
0 to 25%	0 to 25%	> 75%	0 to 25%	0 to 25%	> 75%	–	O=C(O)c1ccn(C(=O)N2CCN(Cc3ccc(Cl)cc3N3CCCC3)CC2)n1 [Example 107, 1-(4-(4-chloro-2-(pyrrolidin-1-yl)benzyl)piperazine-1-carbonyl)-1H-pyrazole-3-carboxylic acid]
0 to 25%	0 to 25%	> 75%	0 to 25%	0 to 25%	> 75%	–	CC(C)(O)C1CCN(c2cc(C(F)(F)F)ccc2CN2CCN(C(=O)n3ccc(C(=O)O)n3)CC2)CC1 [Example 109, 1-(4-(2-(4-(2-hydroxypropan-2-yl)piperidin-1-yl)-4-(trifluoromethyl)benzyl)piperazine-1-carbonyl)-1H-pyrazole-3-carboxylic acid]

SMILES	inhibition at 5 mg/kg (MAGL [1])	inhibition at 5 mg/kg (FAAH [2])	inhibition at 1 µM (MAGL [3])	inhibition at 1 µM (FAAH [4])	inhibition at 1 µM (FAAH [5])	inhibition at 1 µM (MAGL [6])	IC50 (FAAH [5])
O=C(O)c1ccn(C(=O)N2CCN(Cc3ccc(Cl)cc3N3C4CCC3COC4)CC2)n1 [Example 105, 1-(4-(2-(3-oxa-8-azabicyclo[3.2.1]octan-8-yl)-4-chlorobenzyl)piper-azine-1-carbonyl)-1H-pyrazole-3-carboxylic acid]	0 to 25%	0 to 25%	> 75%	0 to 25%	0 to 25%	> 75%	–
